Reference: US20230096443A1, “NOVEL NICOTINAMIDE DI-NUCLEOTIDE DERIVATIVES AND USE THEREOF” (NUVAMID SA, priority 2019, published 2023)

Columns and labels:
[1] = system: CYP-induced visceral pain; test: Acute cyclophosphamide (CYP)-induced cystitis model, von Frey mechanical stimulation; format: in vivo, female Sprague-Dawley rats; conditions: 500 mg/kg p.o.
Protocol: The aim of the present study was to evaluate, the effects of oral administration of Nicotinamide Mono-Nucleoside (NMN), Pro-drug A (alpha-NMN) and Pro-drug B (compound I-A), compounds I-B and I-C at 500 mg/kg on visceral pain response in the acute cyclophosphamide (CYP)-induced cystitis model in female Sprague-Dawley rats.
Female Sprague-Dawley rats, 7 weeks at delivery
• NMN: 500 mg/kg • Pro-drug A: 500 mg/kg • Pro-drug B (compound I-A): 500 mg/kg • Compound I-B: 500 mg/kg • Compound I-C; 500 mg/kg • Vehicle: distilled water • Route of administration: per os (p.o.), 5 mL/kg • Frequency of administration: once at DO, 15 min prior CYP intraperitoneal (i.p.) injection.
=>lowered threshold=allodynia • Nociceptive score: % of the maximal response (total=9 for 3 pooled applications) for each filament

SS RBCs = test: RBC sickling under hypoxia ex vivo (sickle cell disease mouse model); format: in vivo, Townes S/S mice; conditions: 1% O2 for 30 minutes ex vivo
Protocol: The aim of the present study was to evaluate, the effects of i.p. administration of Nicotinamide Mononucleotide (NMN), compound I-B and compound I-C at 185 mg/kg as modulator of red blood cell sickling and their potential role in therapy for sickle cell disease on a mouse model of SCD.
Townes S/S mice on a 129/B6 mixed genetic background.
The powder of NMN, compounds I-B and I-C (185 mg/kg) were dissolved in vehicle (the solution was used at room temperature for maximum 1 day). A fresh sample for each administration was prepared every day except the week-end (the solution is prepared on Saturday and is used on Saturday and Sunday).
In Townes S/S mice, mouse alpha- and beta-globin gene loci are deleted and replaced by human alpha- and beta-globins. When carrying two copies of the beta S allele, mice develop a human sickle cell disease phenotype with sickle-shaped red blood cells seen in blood smears.
Mice were i.p treated with NMN, compounds I-B and I-C during all the experiment (D0 to D15) once per day. Last injection occurred 24 hours before sacrifice.
Retro-orbital blood collection was performed at the inclusion D0 and at D5, D10 and D15 through facial vein bleeding.
Red blood cells collected were submitted to hypoxia (1% O2) for 30 minutes to induce sickling. Percentage of sickle cells was then assessed.
SS RBCs from treated mice were collected at D0, D5, D10 and D15 and were submitted to hypoxia for 30 minutes in a hypoxic chamber (1% O2). Percentage of sickling RBCs was then assessed for each time point with compounds NMN, I-B and I-C.

[2] = system: doxorubicin-induced cardiotoxicity; test: Model of doxorubicin-induced cardiotoxicity; format: in vivo, male mice; conditions: 5 days after DOX 20 mg/kg; for survival rate: 180 mg/kg i.p. once daily; for end-systolic LV volume: vs DOX vehicle group; for heart weight: vs DOX vehicle mice
Protocol: The aim of the present study was to evaluate, the effects of i.p administration of Nicotinamide Mononucleotide (NMN), compound I-B and compound I-C at 180 mg/kg in the progression of a cardiotoxicity induced by doxorubicin.
76 male mice, 8-week-old at the arrival were obtained from Janvier Labs, Le Genest St Isle, 53941 St Berthevin, France. Each animal was identified with electronic chip. Each cage was numbered. Based on the animal number/cage and number of cages, the animals were assigned of unique number with the name of group and mice number.
The powder of NMN, compounds I-B and I-C (180 mg/kg) were dissolved in vehicle (the solution is used at room temperature for maximum 1 day). A fresh sample for each administration was prepared every day except the week-end (the solution is prepared on Saturday and is used on Saturday and Sunday).
Cardiotoxicity was induced by a single intraperitoneal injection of doxorubicin (DOX) at 20 mg/kg. Doxorubicin was prepared at 2 mg/mL and volume of administration was 10 mL/Kg.
At D0, mice were injected with DOX (20 mg/kg) by intraperitoneal route.
The treatment with NMN, compounds I-B and I-C was initiated from 5 days before DOX injection, once per day, from D-5 to DO.
Mice were i.p treated with NMN, compounds I-B and I-C 30 min before DOX injection.
Mice were i.p treated with NMN, compounds I-B and I-C for the duration of the experiment (D0 to D5) once per day. Last injection occurred 24 hours before sacrifice.
The bodyweight was assessed at inclusion and at D5.
The survival rate was recorded every day until the end of the experiment (D5).
Retro-orbital blood collection was performed at the inclusion and at 1 and 5 days after the […] with DOX to assess biomarker (LDH and creatinine).
Echocardiography (ECG) was performed 5 days after doxorubicin injection in anesthetized (isoflurane 1.5-2%) animals with non-invasive two-dimensional echocardiography (VF16-5 probe, Siemens, Acuson NX3 Elite). After removing hairs on the chest, numeric images of the heart were obtained in both parasternal long-axis and short axis views.
The following cardiac function were assessed during ECG: • Left ventricle (LV) end-systolic and end-diastolic inner diameter; • LV end-systolic and end-diastolic volume, • Fractionnal shortening; • Ejection fraction; • Heart Rate; and • Anterior and posterior wall thickness in Diastole and in systole.

[3] = after 15 days treatment 185 mg/kg i.p. once daily

Structure (SMILES) | nociceptive scores (CYP-induced visceral pain) vs vehicle ([1]; +2 h after CYP) | nociceptive scores (CYP-induced visceral pain) vs vehicle ([1]; +4 h after CYP) | nociceptive scores (CYP-induced visceral pain) vs vehicle ([1]; +6 h after CYP) | nociceptive threshold (CYP-induced allodynia) vs vehicle ([1]; +6 h after CYP) | percentage of sickling cells (SS RBCs; D0 (start of treatment)) [%] | percentage of sickling cells (SS RBCs; [3]) | survival rate [2] | ejection fraction ([2]; 180 mg/kg i.p.) [%] | fractional shortening ([2]; 180 mg/kg i.p.) | heart rate ([2]; 180 mg/kg i.p.) [bpm] | LV anterior and posterior wall thickness in systole ([2]; 180 mg/kg i.p., vs DOX vehicle) | body weight loss after doxorubicin administration ([2]; 180 mg/kg i.p., vs DOX vehicle) | end-systolic LV volume ([2]; 180 mg/kg i.p.) | heart weight ([2]; 180 mg/kg i.p.) | nociceptive threshold (CYP-induced allodynia) vs vehicle ([1]; +2 h after CYP) | nociceptive threshold (CYP-induced allodynia) vs vehicle ([1]; +4 h after CYP) | heart rate (change in words) ([2]; 180 mg/kg i.p., vs DOX vehicle) | reduction in plasma LDH release/levels ([2]; 180 mg/kg i.p., vs DOX vehicle)
NC(=O)c1ccc[n+]([C@@H]2O[C@H](COP(=O)([O-])OP(=O)([O-])OC[C@H]3O[C@H]([n+]4cccc(C(N)=O)c4)[C@H](O)[C@@H]3O)[C@@H](O)[C@H]2O)c1 [Compound I-B] | significant decrease | significant decrease | significant decrease | significant increase | 32 | less than 15% | 98 % of survival | 60.0±0.6 | around 38% | 470.1±18.8 | non-significant increases | significantly decreased | reduced | tended to increase heart weight |  |  |  | 
NC(=O)c1ccc[n+]([C@H]2O[C@H](COP(=O)([O-])O)[C@@H](O)[C@H]2O)c1 [Pro-Drug A, alpha-NMN, reference compound] | decrease | achieved the statistical level |  |  |  |  |  |  |  |  |  |  |  |  | non-significant increase | significant increase |  | 
NC(=O)c1ccc[n+]([C@H]2O[C@H](COP(=O)([O-])OP(=O)([O-])OC[C@H]3O[C@H]([n+]4cccc(C(N)=O)c4)[C@H](O)[C@@H]3O)[C@@H](O)[C@H]2O)c1 [Compound I-C] | significant decrease | significant decrease | significant decrease | significant increase | 31 | 20% | 100 % of survival | 58.2±0.5 | around 38% |  | non-significant increases | significantly decreased | reduced | tended to increase heart weight |  |  | increased heart rates | 
NC(=O)c1ccc[n+]([C@@H]2O[C@H](COP(=O)([O-])O)[C@@H](O)[C@H]2O)c1 [NMN, Nicotinamide Mononucleotide, reference compound] | significant decrease | significant decrease |  |  | 40 | less than 10% | 78 % of survival | 56.9±0.6 | around 38% |  | non-significant increases | significantly decreased | reduced |  | slight increase | slight increase | increased heart rates | more than 35%
